Measured values as given in patent US7744927B2, “Methods of promoting hematopoietic and mesenchymal cell proliferation and differentiation” (University of Southern California, priority 1997, dated 2010).

Columns and labels:
[1] = system: cultured cells that are involved in wound repair; conditions: cited from earlier work
AT2 receptor = conditions: cited from earlier work
wound tissue = conditions: application to wound tissue; cited from earlier work
[2] = system: human peripheral blood mononuclear cells (PBMC); assay: Respiratory burst (hydrogen peroxide generation), human PBMC; assay type: cell-based; conditions: alone and in response to PMA 10 ng/ml; 4 hours exposure
Experimental: (§1) The respiratory burst of leukocytes (macrophages and polymorphonuclear neutrophils) is one component of the mediator system used to kill bacteria. As with phagocytosis, the level of this respiratory burst activity in resident macrophages is low. […] Studies were conducted to assess the effect of in vitro exposure of murine or rat peritoneal macrophages and human peripheral blood mononuclear cells (PBMC) to various concentrations of AII on the capacity to generate hydrogen peroxide via the respiratory burst system. For the human studies, five different donors were examined.
(§2) The murine or rat peritoneal cells were harvested by lavage with 5-15 ml of cold PBS with 0.5% bovine serum albumin. The human PBMC were harvested by venipuncture from normal human volunteers and isolated from peripheral blood by Ficoll Hypaque density centrifugation. After isolation, the cells were resuspended at 1×10^6 cells/ml and placed at 100 μl per well into 96 well plates. The cells were incubated with various concentrations of AII or AII analogues for 4 hours at 37° C. The cells were then preloaded with a fluorescent probe for hydrogen peroxide, 2,7 dichlorofluorescein acetate, which is nonfluorescent in the absence of hydrogen peroxide. Fifteen minutes later, 10 ng/ml of phorbol myristate acetate (+PMA) or PBS (−PMA) was added to stimulate the production of hydrogen peroxide. One hour after stimulation the level of fluorescence produced was measured on a Cytofluor 2350 multiwell fluorometer.

[3] = system: rat peritoneal macrophages; assay: Respiratory burst (hydrogen peroxide generation), rat peritoneal macrophages; assay type: cell-based; conditions: alone and in response to PMA 10 ng/ml; 4 hours exposure
Experimental: as §1
as §2, with “Fifteen minutes later, 10 ng/ml of phorbol myristate acetate (+PMA) or PBS (−PMA) was added to stimulate the production of hydrogen peroxide.” left out

murine HPC = assay: Murine HPC colony formation in the absence of colony stimulating factors; assay type: cell-based, C57B1/6 mice; conditions: 14 days
Experimental: HPC were harvested from C57B1/6 mice by immunomagnetic affinity chromatography and placed in semi-solid cultures with optimal growth medium in the absence of colony stimulating factors. At various times after initiation of culture, the formation of colonies and the size of the colonies (number of cells/colony) was assessed microscopically.
Female C57B1/6 mice were purchased from Simonson and used as a source of bone marrow cells in this study. The bone marrow was harvested from the femur and tibia of mice by flushing with phosphate buffered saline (PBS), pH 7.4, containing 2% fetal bovine serum (FBS) with a 21-gauge needle. The eluant from the flushing was centrifuged and the pellet was resuspended at 4×10^7 nucleated cells/ml in PBS containing PBS containing 2% FBS and 5% normal rat serum.
The reagents for immunomagnetic labeling were purchased from Stem Cell Technologies, Inc. (Vancouver, BC). Biotin-labeled monoclonal antibodies to the following murine lineage-specific cell surface antigens were included in a cocktail for HPC enrichment and used according to the manufacturer's instructions: CD5 (Ly-1), CD45-R (B220), CD11b (Mac-1), Myeloid Differentiation Antigen (Gr-1) and Erythroid Cells (TER 119) Ten μl of antibody cocktail was added to the bone marrow, mixed and allowed to incubate at 4° C. for 15 minutes. […]

rabbit corneal eye = conditions: in vivo; cited from earlier work

## Asp-Arg-Val-Tyr-Ile-His-Pro-Phe [AII, known pressor agent, commercially available]
[1]
  mitogenesis and chemotaxis: increases mitogenesis and chemotaxis
AT2 receptor
  affinity for AT2 than AT1: 100 times
Wound tissue
  rate of wound healing: significantly increases the rate of wound healing
[2]
  ability to generate hydrogen peroxide (respiratory burst): increased the ability of leukocytes to generate hydrogen peroxide
[3]
  ability to generate hydrogen peroxide (respiratory burst): increased the ability of leukocytes to generate hydrogen peroxide
Murine HPC
  HPC colony size / HPC proliferation: HPC colony size increases proportionately
Rabbit corneal eye
  angiogenic activity: angiogenic
